Data as given in patent publication US20070254038A1, “Microspheroidal Controlled Release Of Biomolecules” (The Trustees of the University of Pennsylvania, priority 2006, published 2007).
Entries after “also recorded” stand apart in the source; their conditions may differ.

Experiment: Incorporation of vancomycin into acid-catalyzed (AC) and acid-base catalyzed (ABC) sols: clear vs cloudy (precipitation)
Format: physicochemical
Description: TEOS (10 ml) and 0.1 M HCl (2.4 ml), with or without the addition of deionized water, were mixed using a magnetic stirrer until a one-phase sol was formed. The water/TEOS molar ratio varied from 0 to 10. Pharmaceutical agents were then added to the sol. For example, Sols with 20 mg/g and 30 mg/g of vancomycin (drug to SiO2 ratio), and sols with 50 mg/g and 80 mg/g of bupivacaine per gram SiO2 were made by adding corresponding amounts of the drug. The sol containing added pharmaceutical agents was mixed for 30 minutes at 660 rpm and was then allowed to stand for 15 minutes. Subsequently, 0.08 M NH4OH (2.2-2.4 ml) was added dropwise to the sol, which was stirred at 660 rpm targeting a final pH of about 5.5. Under these conditions, the time to gelation varied from about 20 and 40 minutes. Upon mixing, the sol was added dropwise into vegetable oil stirred at speeds between 220 and 440 rpm and microspheres precipitated to the bottom of the beaker. Microspheres were filtered through a 70 μm nylon microporous filter and then rinsed with DI water and alcohol. The microspheres were left to dry overnight in a laminar flow hood.
Vancomycin (vancomycin-HCl; Abbott Labs, Chicago, Ill.) dissolved in water at 100 mg/ml was used for incorporation into the sols. Bupivacaine (Spectrum, New Brunswick, N.J.) dissolved in methanol at 70 mg/ml was also used for incorporation into the sols.
The effect of water content on the incorporation of vancomycin into the sol was studied by using either “water-free” (no additional water added other than that contained in the aqueous HCl solution) acid-catalyzed sols or sols with added water/TEOS molar ratios (R) of 5, 6, 8, and 10. […] When water was added at R=4, low doses of vancomycin such as 16.7 mg/g SiO2 could be added to the acid-catalyzed sol.

## CN[C@H](CC(C)C)C(=O)N[C@H]1C(=O)N[C@@H](CC(N)=O)C(=O)N[C@H]2C(=O)N[C@H]3C(=O)N[C@H](C(=O)N[C@H](C(=O)O)c4cc(O)cc(O)c4-c4cc3ccc4O)[C@H](O)c3ccc(c(Cl)c3)Oc3cc2cc(c3O[C@@H]2O[C@H](CO)[C@@H](O)[C@H](O)[C@H]2O[C@H]2C[C@](C)(N)[C@H](O)[C@H](C)O2)Oc2ccc(cc2Cl)[C@H]1O [Vancomycin, vancomycin]
water-free AC sol, vancomycin loading 16.7 mg/g
  appearance of sol on incorporation of vancomycin: cloudy
water/TEOS R=4, ABC sol (after base), loading 16.7 mg/g
  appearance of sol on incorporation of vancomycin: precipitation of vancomycin was seen; also recorded: cloudy
water/TEOS R=4, AC sol, loading 16.7 mg/g
  appearance of sol on incorporation of vancomycin: clear
water/TEOS R=5, ABC sol (after base), loading 28 mg/g
  appearance of sol on incorporation of vancomycin: vancomycin precipitation was observed; also recorded: cloudy
water/TEOS R=5, ABC sol, loading 16.7 mg/g
  appearance of sol on incorporation of vancomycin: clear
water/TEOS R=5, ABC sol, loading 22.2 mg/g
  appearance of sol on incorporation of vancomycin: clear
water/TEOS R=5, AC sol, loading 16.7 mg/g
  appearance of sol on incorporation of vancomycin: clear
water/TEOS R=5, AC sol, loading 22.2 mg/g
  appearance of sol on incorporation of vancomycin: clear
water/TEOS R=5, AC sol, loading 28 mg/g
  appearance of sol on incorporation of vancomycin: clear
water/TEOS R=5, doses up to 20 mg/g SiO2
  precipitation after the addition of the drug and base: no precipitation was observed
water/TEOS R=8, ABC sol, loading 22.2 mg/g
  appearance of sol on incorporation of vancomycin: clear
water/TEOS R=8, ABC sol, loading 33 mg/g
  appearance of sol on incorporation of vancomycin: clear
water/TEOS R=8, AC sol, loading 22.2 mg/g
  appearance of sol on incorporation of vancomycin: clear
water/TEOS R=8, AC sol, loading 33 mg/g
  appearance of sol on incorporation of vancomycin: clear
water/TEOS R=10, ABC sol, loading 22.2 mg/g
  appearance of sol on incorporation of vancomycin: clear
water/TEOS R=10, AC sol, loading 22.2 mg/g
  appearance of sol on incorporation of vancomycin: clear
water/TEOS ratios 8 and above, load such as 28 mg/g SiO2
  incorporation of higher loads into the sol: successfully incorporated
